{"source": "patent EP4556005A1", "about": "“COMPOUND FOR TREATING FLAVIVIRUS INFECTIONS” (Leibniz-Institut für Virologie, priority 2023, dated 2025)", "key": {"[1]": {"test": "Cytotoxicity, cell viability by Resazurin assay", "type": "cell-based", "details": "human, JEG-3 human placental cells; naive JEG-3 cells, 24-well plates (8×10^4 cells/well), increasing amounts of inhibitor, viability read forty-height (48) hours later; Figure 3A; read-out: 50% cytotoxicity concentration (CC50)", "procedure": "In a first experiment, the cytotoxicity of the UBA5 inhibitor DKM29-3 was determined. Naive JEG-3 human placental cells were seeded in 24-well plates (8×10^4 cells/well) and on the next day treated with increasing amounts of the UBA5 inhibitor DKM29-3."}, "ZIKV (PRVABC59 strain)": {"tested_on": "ZIKV (PRVABC59 strain)", "test": "Zika virus replication in infected JEG-3 cells, plaque-forming unit assay (PFU) on VeroE6 cells", "type": "cell-based", "details": "wild-type JEG-3 cells, MOI 0.01, 16 µM or 32 µM added after virus absorption, supernatants analysed forty-height (48) hours later; n=4; Mann-Whitney test p-value < 0.05", "procedure": "Then, the effect of UBA5-inhibitor DKM29-3 on Zika virus replication was studied. Wild-type JEG-3 cells were seeded as described above and infected with ZIKV (PRVABC59 strain) at an MOI (Multiplicity of Infection) of 0.01 for 1h at 37°C. After virus absorption the cells monolayers were washed with PBS (Phosphate Buffer Saline), and cell culture media containing 16 µM or 32 µM of DKM29-3 were added to the cells. Forty-height hours later virus-containing supernatants were analyzed by plaque-forming unit assay (PFU) on VeroE6 cells (n=4; Mann-Whitney test p-value < 0.05)."}}}
{"smiles": "COc1ccc(CNC(=O)CCl)cc1OC", "note": "[DKM29-3, 2-chloro-N-(3,4-dimethoxybenzyl)acetamide]", "values": [{"measurement": "CC50 at 48 h", "setting": "[1]", "value": 80.2, "unit": "µM"}, {"measurement": "Zika virus replication", "setting": "ZIKV (PRVABC59 strain)", "value": "significantly reduced"}]}
